Test results from paper PMC11831592, “Repurposing Linezolid in Conjunction with Histone Deacetylase Inhibitor Access in the Realm of Glioblastoma Therapies” (Journal of Medicinal Chemistry, 2025).

Columns and labels:
[1] = test system: PT#3-R TMZ-resistant GBM cell line; test: cells; assay type: cell-based; conditions: MTT
Experimental: The cytotoxic effects of these compounds were assessed using the MTT assay (Table 1 and Supporting Information IV).
MTT assay was employed to evaluate the cytotoxicity of the synthesized compound against resistant GBM cells. The MTT (3-(4,5-dimethylthiazol-2-yl)-2,5-diphenyltetrazolium bromide, catalog no. AM0818-0005) powder was purchased from BIONOVAS (Ontario, Canada). The MTT was prepared at 10 mg/mL stock with ultrapure water and then stored at −20 °C. […] Before the experiment, the MTT stock was 10-fold diluted with the culture medium and then incubated with cells for 30 min. After the incubation, the MTT medium was discarded and added 300 μL of dimethyl sulfoxide (DMSO, cat. no. D2650, Sigma-Aldrich, MO, USA) to dissolve the cells.

PT#3 = test: CCK8 cell proliferation assay, PT#3; assay type: cell-based; conditions: Homo sapiens; PT#3, CCK8, 72 h
Experimental: Cell viability and drug cytotoxicity were determined by a CCK-8 kit (Cell Counting Kit-8, CK04-13, MD, USA) (CCK8, C0005, Target Molecule Corp., MA, USA) reagent. Cells were seeded 2 × 10^3 per well in the 96-well plate for 24 h, followed by treating at different concentrations of compounds for 72 h. Before the experiment, CCK8 was 10-fold diluted with the culture medium and then incubated with cells for 30 min. Finally, the OD was 450 nm absorbance and calculated for cell viability.

Primary Mouse Astrocyte = test: CCK8 assay, primary culture astrocytes; assay type: cell-based
Experimental: The human glioblastoma cell lines U87MG (HTB-14), T98G (CRL-1690), and A172 (CRL-1620) were provided by the American Type Culture Collection (Manassas, VA, USA). The patient-derived cell line PT#3 was purified under the approval of the Institutional Review Board of Taipei Medical University (TMU) (No. 201006011). The murine astrocytoma cell line CT-2A (SCC194) was purchased from Merch Millipore (MA, USA). TMZ-resistant cell lines were established as described previously.[40] All cell lines were cultured in Dulbecco’s modified Eagle’s medium basal medium (Cat# 10-013-CM, CORNING, MA, USA), supplemented with 10% fetal bovine serum (Cat# 12676029, Thermo Fisher Scientific, MA, USA), 100 units/mL penicillin, and 100 μg/mL streptomycin (Cat# 15140122, Thermo Fisher Scientific) at 37 °C in the environment of 95% air and 5% carbon dioxide and maintained resistant characteristic with […] of TMZ (Cat# HY-17364, MedChemExpress, NJ, USA). Primary cultured astrocytes and neurons were derived from E17 embryonic mice. […]
Cell viability and drug cytotoxicity were determined by a CCK-8 kit (Cell Counting Kit-8, CK04-13, MD, USA) (CCK8, C0005, Target Molecule Corp., MA, USA) reagent. […] Finally, the OD was 450 nm absorbance and calculated for cell viability.

HDAC1 = target: T1, HDAC1 (Homo sapiens, UniProt Q13547); test: HDAC enzyme inhibition assay, HDAC1; assay type: biochemical; conditions: 10-dose, 3-fold serial dilution starting at 10 μM
T1 construct: purchased Reaction Biology Corporation, Malvern, PA (contract assay service)
T1 sequence (Q13547 whole entry): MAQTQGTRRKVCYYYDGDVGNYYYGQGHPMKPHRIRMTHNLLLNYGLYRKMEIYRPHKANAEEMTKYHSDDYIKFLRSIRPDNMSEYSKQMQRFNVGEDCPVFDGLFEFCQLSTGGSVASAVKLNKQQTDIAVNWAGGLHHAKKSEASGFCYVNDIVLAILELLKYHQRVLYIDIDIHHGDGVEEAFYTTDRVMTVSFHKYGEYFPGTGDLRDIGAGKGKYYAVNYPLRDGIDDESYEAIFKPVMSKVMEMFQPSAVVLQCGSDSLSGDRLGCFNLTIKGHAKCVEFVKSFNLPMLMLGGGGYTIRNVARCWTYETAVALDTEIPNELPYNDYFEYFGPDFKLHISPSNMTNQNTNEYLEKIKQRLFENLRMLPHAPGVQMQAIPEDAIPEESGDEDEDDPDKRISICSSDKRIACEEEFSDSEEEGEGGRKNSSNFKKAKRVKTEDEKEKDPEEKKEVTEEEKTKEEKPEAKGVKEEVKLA
Experimental: Enzyme inhibition assays were performed by the Reaction Biology Corporation, Malvern, PA (http://www.reactionbiology.com).

CT-2A astrocytoma cells = test: Orthotopic CT-2A tumor model, IVIS; assay type: in vivo, mouse; conditions: 10 mg/kg intraperitoneally
Experimental: Animals were imaged using an IVIS to monitor tumor growth and target expression changes. Initially, animals were anesthetized with isoflurane prior to imaging to minimize movement artifacts. D-luciferin (150 mg/kg) was then administered via an intraperitoneal injection. After 60 s, animals were positioned on the imaging platform, and images were acquired with a 10-s exposure. Experimental data were collected and quantified for fluorescence or bioluminescence signals by using Living Image software in the IVIS system. After each imaging session, animal ID, imaging parameters, and imaging time were recorded for subsequent analysis.
For orthotopic inoculation, CT-2A cells (1 × 10^5) or CT-2A-R (2 × 10^5) were suspended in 4 μL of DMEM and implanted into the brain of B6 mice. PT#3-R cells (5 × 10^5) were suspended in 4 μL of DMEM and implanted into the brain of SCID mice. After cell implantation, mice were monitored daily for survival, and their body weight was measured every 3 days starting from the seventh day. The oral vehicle consisted of 40% ethyl oleate, 12% lecithin, 20% propylene glycol, and 28% Triton X-100. Mice were administered 5 μL of vehicle per gram of body weight along with 50 mg/kg TMZ or a combination of TMZ and compound 1. […] Upon the natural death of the mice, brains were extracted and entrusted to BioTools for sectioning and HE staining.

[2] = Adverse reactions in treated tumor-bearing mice; assay type: in vivo; conditions: mice of the orthotopic tumor models
Experimental: For orthotopic inoculation, CT-2A cells (1 × 10^5) or CT-2A-R (2 × 10^5) were suspended in 4 μL of DMEM and implanted into the brain of B6 mice. PT#3-R cells (5 × 10^5) were suspended in 4 μL of DMEM and implanted into the brain of SCID mice. After cell implantation, mice were monitored daily for survival, and their body weight was measured every 3 days starting from the seventh day. The oral vehicle consisted of 40% ethyl oleate, 12% lecithin, 20% propylene glycol, and 28% Triton X-100. Mice were administered 5 μL of vehicle per gram of body weight along with 50 mg/kg TMZ or a combination of TMZ and compound 1. Intraperitoneal injections were administered with DMSO (solvent control), TMZ (10 μg/kg), TMZ (10 μg/kg), and compound 1 (10 or 20 μg/kg). Upon the natural death of the mice, brains were extracted and entrusted to BioTools for sectioning and HE staining.
Supplementary information VIII. Body weight changes in mice administered with vehicle, TMZ, and Compound 1 in vivo.
S-VIII-1. Body weight changes in mice administered with DMSO, TMZ, and Compound 1 intraperitoneally following orthotopic CT-2A tumor implantation .
S-VIII-2. Body weight changes in mice administered with vehicle, TMZ, and Compound 1 intraperitoneally following orthotopic CT-2AR tumor implantation.
S-VIII-3. […]

Question: Which results are given for O=C(/C=C/c1ccc(CNC[C@H]2CN(c3ccc(N4CCOCC4)c(F)c3)C(=O)O2)cc1)NO [compound 1, (S,E)-3-(4-((((3-(3-Fluoro-4-morpholinophenyl)-2-oxooxazolidin-5-yl)methyl)ami-no)methyl)phenyl)-N-hydroxyacrylamide]?
Answer: IC50 ([1]; Homo sapiens, 72 h): 12.1 ± 1.48 µM; cytotoxic effect on resistant GBM cells ([1]; 20 μM and above): significant cytotoxic effect; IC50 (PT#3): 10.3 ± 0.52 µM; IC50 (Primary Mouse Astrocyte): 143 ± 7.9 µM; IC50 (HDAC1): 1090 nM; growth of orthotopic tumors (IVIS) (CT-2A astrocytoma cells): effectively inhibited the growth of orthotopic tumors; adverse reactions during the treatment period [2]: without adverse reactions observed
